According to US20040203128A1, “Use of PP2A phosphatase modulators in the treatment of mental disorders” (priority 2002, published 2004):

Legend:
GSK-3β = assay: In vitro phosphorylation assay of GST-2E11 with recombinant GSK-3β kinase and PKA; type: biochemical; settings: LiCl at final concentration 0, 8.3, 25, 75 and 225 mM; signal negatively correlated with concentration
Protocol: Expression and purification of the GST-2E11 fusion protein were performed as described above. Beads with bound fusion protein corresponding to 1 ml of bacterial clear lysate were washed three times in NETN and one time with HMK buffer without DTT (20 mM Tris-HCl [pH 7.5], 120 mM NaCl, 12 mM MgCl2). Beads were resuspended in 240 μl of reaction mix (24 μl of 10×HMK Buffer with 20 mM DTT, 40 units of Protein Kinase A Catalytic Subunit [PKA from bovine heart, 250 units/vial, Sigma] in 40 mM DTT, 5 μl of 24 mM ATP and 207 μl of distilled water) and incubated for 30 min at room temperature. Beads were then washed three times in NETN buffer and one time in GSK-3β reaction buffer (20 mM Tris-HCl [pH 7.5], 10 mM MgCl2, 5 mM DTT) (New England Biolabs). Beads were then resuspended in 50 μl of reaction mix (5 μl of 10×GSK-3β reaction buffer, 1 μl of [^32P]γATP 10mCi/ml, 50 U of recombinant GSK-3β[New England Biolabs], and distilled water for a final volume of 50 μl) and incubated at room temperature for 30 min. After three washes in NETN buffer, phosphorylated proteins were boiled in 2× Sample Buffer (125 mM Tris-HCl [pH 6.8], 4% SDS, 20% glycerol, 1.4 M β-Mercapto ethanol), resolved by 10% SDS-PAGE, and visualized by autoradiography.
In this phosphorylation assay, non-radiolabeled polypeptides to be tested are incubated in the presence of GSK-3β, PKA and radioactive ATP. […]

PP2A phosphatase = assay: In vitro dephosphorylation of phosphorylated GST-2E11 with HTB-14 whole cell extracts; type: biochemical, Human; settings: HTB-14 cell extracts plus 400 μM okadaic acid, 30 min, room temperature
Protocol: In vitro phosphorylated GST-2E11 fusion protein was incubated at room temperature for 30 min with 500 μg of whole cell extracts of Human glioblastoma, astrocytoma cell line (ATCC number: HTB-14) with or without 400 μM of the PP2A phosphatase inhibitor okadaic acid (Sigma). HTB-14 whole cell extracts were prepared as follow: cells were washed three times with ice-cold TBS buffer (10 mM Tris-HCl [pH 8.0], 120 mM NaCl) and lysed at 4° C. for 30 min in EBC buffer (50 mM Tris-HCl [pH 8.0], 120 mM NaCl, 0.5% Nonidet P-40). Then the lysate was centrifugated for 10 min at 13.000×g at 4° C. to pellet cell debris. Proteins present in the supernatant were quantified by the standard Bradford's method (Bio-Rad Protein Assay). The proteins were then resolved by 10% SDS-PAGE, and visualized by autoradiography.
The phosphorylated radiolabeled GST-2E11 proteins obtained from the previous assay were incubated in the presence of HTB-14 cell extracts containing the PP2A phosphatase to determine whether PP2A is capable of dephosphorylating GST-2E11 proteins. In this experiment, a protein that is dephosphorylated by PP2A is not radioactive after incubation in the presence of HTB-14 cell extracts any more. Thus dephosphorylation of the GST-2E11 protein is monitored by disappearance of the signal visualized by autoradiography. […]

| Structure (SMILES) | intensity of the GST-2E11 band (phosphorylation) in the presence of LiCl (GSK-3β) | intensity of the GST-2E11 band versus phosphorylated GST-2E11 reference (inhibition of dephosphorylation) (PP2A phosphatase) |
| --- | --- | --- |
| [Cl-].[Li+] [LiCl] | decreased | – |
| C=C1[C@@H](O)[C@@H]2O[C@]3(CC[C@H](/C=C/[C@@H](C)[C@@H]4CC(C)=C[C@@]5(O[C@H](C[C@@](C)(O)C(=O)O)CC[C@H]5O)O4)O3)CC[C@H]2O[C@@H]1[C@@H](O)C[C@H](C)[C@H]1O[C@@]2(CCCCO2)CC[C@H]1C [okadaic acid] | – | only slightly weaker |
